Results: article PMC4184702 (Pharmacology Research & Perspectives, 2014)
Entries after “also recorded” stand apart in the source; their conditions may differ. Where two headings read alike, the source gives them in different places.

What was measured:
human (α6/3)β2β3-nAChR = target: T1, human (α6/3)β2β3-nAChR (Homo sapiens, UniProt P17787+P32297+Q15825); test: 86Rb+ ion efflux assay, SH-EP1-h(α6/3)β2β3 cells; assay type: cell-based
T1 construct: expressed in transfected cells; host or cells: SH-EP1 human epithelial cells (SH-EP1-h(α6/3)β2β3)
Text: (§1) Cell lines naturally or heterologously expressing specific, functional, human nAChR subtypes were used. The human clonal cell line TE671/RD naturally expresses human muscle-type α1*-nAChRs, containing α1, β1, γ, and δ subunits, with function detectable using ^86Rb^+ efflux assays. […] These cells heterologously express human nAChR chimeric (α6/3) subunits (wherein the extracellular, N-terminal, ligand-binding domain of the human nAChR α6 subunit replaces that domain in the nAChR α3 subunit) along with human β2 and β3 subunits. […] Cells were passaged once a week by splitting just-confluent cultures 1/300 (TE671/RD), 1/10 (SH-SY5Y), or 1/40 (transfected SH-EP1) in serum-supplemented medium to maintain log-phase growth.
(§2) One newer modification on these techniques involves low temperature incubation before assays to increase the surface expression of high sensitivity (HS) relative to low sensitivity (LS) α4β2 nAChRs and to enhance surface expression of (α6/3)β2β3-nAChRs. […] In brief, this allows us to determine efficacies of test compounds at LS and HS α4β2 nAChRs, respectively, as the ordinate values of the linear regressions at abscissa values of 0% and 100% of sazetidine-A efficacy.
Results are normalized to responses to a fully efficacious concentration of carbamylcholine (see Materials and Methods for details). […] The ordinate intercepts of the linear regressions at a sazetidine-A efficacy (abscissa) of 0% represent the efficacies at LS α4β2-nAChRs, while the ordinate intercepts at a sazetidine-A efficacy of 100% represent the efficacies at HS α4β2-nAChRs.

[1] = target: T2, LS (low sensitivity) α4β2-nAChRs (Homo sapiens, UniProt P17787+P43681); test: 86Rb+ ion efflux assay, LS α4β2 efficacy by regression on sazetidine-A efficacy; assay type: cell-based; details: relative to carbamylcholine
T2 construct: expressed in transfected cells; host or cells: SH-EP1 human epithelial cells (SH-EP1-hα4β2)
Text: as §1, §2
(§3) Results are normalized to responses to a fully efficacious concentration of carbamylcholine (see Materials and Methods for details). […]

α7 nAChR = details: ref Rollema et al. [2010]; read-out: Ki α7; cited from earlier work
human α4β2-nAChR = target: T3, human α4β2-nAChR (Homo sapiens, UniProt P17787+P43681); test: 86Rb+ ion efflux assay, SH-EP1-hα4β2 cells; assay type: cell-based; details: normalized to a full antagonist
T3 construct: expressed in transfected cells; host or cells: SH-EP1 human epithelial cells (SH-EP1-hα4β2)
Text: as §1, §2, §3

[2] = target: T4, HS (high sensitivity) α4β2-nAChRs (Homo sapiens, UniProt P17787+P43681); test: 86Rb+ ion efflux assay, HS α4β2 efficacy by regression on sazetidine-A efficacy; assay type: cell-based; details: relative to carbamylcholine
T4 construct: expressed in transfected cells; host or cells: SH-EP1 human epithelial cells (SH-EP1-hα4β2)
Text: as §1, §2, §3

[3] = test system: male 129SvJ;C57BL/6J F1 hybrid mice; design: method as in Turner et al. ([2010]); details: chronic treatment; ref Turner et al. ([2010]); cited from earlier work
Male C57 BL6 mice = test: SmartCube test; assay type: in vivo, mouse; details: for SmartCube behavioral signature: both tested doses, 15 min preinjection
Description: Male C57 BL6 mice (Taconic Farms) were used in the SmartCube® assay (PsychoGenics Inc., Tarrytown, NY). Mice were received at 7 weeks old and group-housed in OptiMICE ventilated cages with four mice/cage. Mice were acclimated to the colony room for at least 1 week prior to the first injections. All animals were tested in SmartCube® at 8 10 weeks old.
To acquire initial in vivo evaluation of our nicotinic ligands for behavioral effects relevant to psychiatric diseases, we used SmartCube®, an automated system in which mouse behavior is captured by digital video using novel, proprietary hardware that presents multiple challenges in a single test session and is analyzed with computer algorithms. Digital videos of the subjects are processed with computer vision algorithms to extract more than 1400 dependent measures including frequency and duration of behavioral states such as grooming, rearing, etc., and many other features obtained during the test session. Using machine learning techniques chosen to best separate pharmacological effects of reference compounds, the behavioral signatures of the mutant mice are then assessed quantitatively.
The most dominant of the features collected that define the drug class signature are identified and ranked using complex proprietary bioinformatics algorithms. The outcome of a SmartCube® run is a set of more than 1400 features (behavioral parameters) that can be used for various analyses. Many of these features are correlated (e.g., rearing counts and supported rearing counts). Therefore, we form statistically independent combinations of the original features (further referred to as decorrelated features) that discriminate between the groups more effectively. Next, we apply a proprietary feature ranking algorithm to score each feature discrimination power to weight each feature change by its relevance. The data obtained in this way are used to define drug signatures for known reference compounds and to establish therapeutic class signatures against which a test sample can be compared. The neuropharmacological effects of a test compound can be predicted by similarity to major classes of compounds, such as antipsychotics, anxiolytics, and antidepressants (Roberds et al. [2011]).
Mice are taken in their home cage to the SmartCube® suite of experimental rooms where they remain until they are placed in the apparatus for a single testing session. A standard SmartCube® protocol runs for a single session (∼45 min). After the session mice are group-housed again and brought back to the colony room. Any abnormal behavior is noted. […] At least 12 mice were used in each treatment group.

α4β4 nAChR = details: ref Rollema et al. [2010]; cited from earlier work
C57BL/6J mice = details: ref Mineur et al. [2009], cited from earlier work; for latency to eat in NSF: 14 days repeat treatment, C57BL/6J mice, [2011]
human α3β4*-nAChR = target: T5, human α3β4*-nAChR (Homo sapiens, UniProt P30926+P32297); test: 86Rb+ ion efflux assay, SH-SY5Y cells; assay type: cell-based; details: 86Rb+ efflux
T5 construct: SH-SY5Y naturally expresses autonomic α3β4*-nAChRs; endogenous in cells; host or cells: SH-SY5Y human neuroblastoma cells
Text: as §1, §2, §3

[4] = test system: BALB/cJ and C57BL/6J mice; details: 28 days oral administration; ref Vieyra-Reyes et al. [2008]; cited from earlier work
α3β4 nAChR = details: Figure 1, cited from earlier work
α4β2 nAChR = details: Figure 1, cited from earlier work
α7* nAChR = details: Figure 1, cited from earlier work
LS and HS α4β2-nAChR = test system: LS and HS α4β2-nAChR; design: method as in Mineur et al. [2009]; details: relative to that of ACh; ref Mineur et al. [2009]; cited from earlier work
mice = details: ref Mineur et al. [2009]; cited from earlier work
α4β2*-nAChR = test system: α4β2*-nAChR; design: method as in Weber et al. [2013]; details: estimate at free concentration in brain; ref Weber et al. [2013]; cited from earlier work
α4β2* nAChR = details: Figure 1, cited from earlier work
α3β4* nAChR = target: α3β4* nAChR; design: method as in Mineur et al. ([2009]); details: Figure 1; ref Mineur et al. ([2009]); cited from earlier work

T1 sequence (Q15825+P32297 fused with the stated changes): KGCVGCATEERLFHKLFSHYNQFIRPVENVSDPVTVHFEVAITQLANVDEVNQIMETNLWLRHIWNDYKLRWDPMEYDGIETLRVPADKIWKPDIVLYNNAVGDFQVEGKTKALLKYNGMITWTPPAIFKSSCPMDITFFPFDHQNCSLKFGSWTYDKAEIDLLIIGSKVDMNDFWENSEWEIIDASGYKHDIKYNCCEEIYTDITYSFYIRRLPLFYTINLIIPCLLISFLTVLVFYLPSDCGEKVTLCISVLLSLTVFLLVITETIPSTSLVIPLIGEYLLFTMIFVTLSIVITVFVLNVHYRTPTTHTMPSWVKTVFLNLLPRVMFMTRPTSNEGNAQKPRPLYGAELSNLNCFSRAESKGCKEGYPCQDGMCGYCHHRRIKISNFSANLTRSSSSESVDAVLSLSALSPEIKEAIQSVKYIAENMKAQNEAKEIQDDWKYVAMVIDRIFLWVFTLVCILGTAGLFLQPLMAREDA
T1 sequence (P17787 26-502): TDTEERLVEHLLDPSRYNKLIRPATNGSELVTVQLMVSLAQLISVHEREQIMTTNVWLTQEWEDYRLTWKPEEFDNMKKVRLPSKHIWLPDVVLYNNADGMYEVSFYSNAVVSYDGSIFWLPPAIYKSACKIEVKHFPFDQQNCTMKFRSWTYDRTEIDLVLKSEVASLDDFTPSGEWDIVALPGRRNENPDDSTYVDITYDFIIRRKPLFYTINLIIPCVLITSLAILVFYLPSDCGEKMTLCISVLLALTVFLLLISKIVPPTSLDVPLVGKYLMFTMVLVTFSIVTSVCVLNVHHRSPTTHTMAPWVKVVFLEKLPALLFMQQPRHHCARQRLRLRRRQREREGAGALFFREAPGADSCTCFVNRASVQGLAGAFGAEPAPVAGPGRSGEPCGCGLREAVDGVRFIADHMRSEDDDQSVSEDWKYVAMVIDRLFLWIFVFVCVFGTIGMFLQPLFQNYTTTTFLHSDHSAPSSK
T1 sequence (Q05901 25-458 partner limits assumed): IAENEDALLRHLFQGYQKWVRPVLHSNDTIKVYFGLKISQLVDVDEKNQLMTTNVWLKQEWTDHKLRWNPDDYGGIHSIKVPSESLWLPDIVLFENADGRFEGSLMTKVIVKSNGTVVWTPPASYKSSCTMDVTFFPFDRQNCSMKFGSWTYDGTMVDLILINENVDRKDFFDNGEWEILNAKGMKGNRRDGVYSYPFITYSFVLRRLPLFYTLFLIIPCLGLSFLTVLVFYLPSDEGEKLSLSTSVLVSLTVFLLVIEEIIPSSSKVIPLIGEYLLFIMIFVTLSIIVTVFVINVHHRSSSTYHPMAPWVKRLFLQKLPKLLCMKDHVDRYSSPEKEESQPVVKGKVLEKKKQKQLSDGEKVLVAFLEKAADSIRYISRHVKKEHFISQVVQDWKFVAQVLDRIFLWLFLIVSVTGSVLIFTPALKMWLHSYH
T5 sequence (P32297 32-505): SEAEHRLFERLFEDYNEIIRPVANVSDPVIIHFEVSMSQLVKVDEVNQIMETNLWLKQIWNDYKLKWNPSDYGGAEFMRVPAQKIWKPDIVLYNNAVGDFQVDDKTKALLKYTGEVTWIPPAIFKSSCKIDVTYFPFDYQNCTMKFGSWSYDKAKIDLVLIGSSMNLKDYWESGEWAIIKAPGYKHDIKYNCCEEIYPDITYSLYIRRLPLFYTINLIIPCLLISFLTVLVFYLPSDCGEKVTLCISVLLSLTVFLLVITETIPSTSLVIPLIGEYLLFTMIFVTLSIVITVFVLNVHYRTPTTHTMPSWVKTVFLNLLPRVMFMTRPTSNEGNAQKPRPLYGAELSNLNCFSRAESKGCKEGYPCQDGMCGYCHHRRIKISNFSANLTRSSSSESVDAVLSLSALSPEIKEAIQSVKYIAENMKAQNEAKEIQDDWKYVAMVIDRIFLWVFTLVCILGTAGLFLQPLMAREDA
T5 sequence (P30926 22-498): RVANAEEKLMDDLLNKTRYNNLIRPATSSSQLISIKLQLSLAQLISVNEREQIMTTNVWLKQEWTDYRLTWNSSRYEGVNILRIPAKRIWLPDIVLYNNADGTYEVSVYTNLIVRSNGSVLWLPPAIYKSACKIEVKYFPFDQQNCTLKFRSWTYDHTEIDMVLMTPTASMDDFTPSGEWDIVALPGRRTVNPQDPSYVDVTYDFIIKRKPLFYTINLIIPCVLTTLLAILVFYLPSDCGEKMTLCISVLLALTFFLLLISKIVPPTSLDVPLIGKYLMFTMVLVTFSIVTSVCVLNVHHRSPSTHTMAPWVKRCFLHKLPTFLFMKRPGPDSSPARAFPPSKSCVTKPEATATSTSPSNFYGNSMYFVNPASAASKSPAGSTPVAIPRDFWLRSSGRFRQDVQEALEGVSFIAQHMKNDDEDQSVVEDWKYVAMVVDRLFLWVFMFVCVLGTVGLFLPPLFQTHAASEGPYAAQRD
T2 sequence (P43681 29-627 limits assumed): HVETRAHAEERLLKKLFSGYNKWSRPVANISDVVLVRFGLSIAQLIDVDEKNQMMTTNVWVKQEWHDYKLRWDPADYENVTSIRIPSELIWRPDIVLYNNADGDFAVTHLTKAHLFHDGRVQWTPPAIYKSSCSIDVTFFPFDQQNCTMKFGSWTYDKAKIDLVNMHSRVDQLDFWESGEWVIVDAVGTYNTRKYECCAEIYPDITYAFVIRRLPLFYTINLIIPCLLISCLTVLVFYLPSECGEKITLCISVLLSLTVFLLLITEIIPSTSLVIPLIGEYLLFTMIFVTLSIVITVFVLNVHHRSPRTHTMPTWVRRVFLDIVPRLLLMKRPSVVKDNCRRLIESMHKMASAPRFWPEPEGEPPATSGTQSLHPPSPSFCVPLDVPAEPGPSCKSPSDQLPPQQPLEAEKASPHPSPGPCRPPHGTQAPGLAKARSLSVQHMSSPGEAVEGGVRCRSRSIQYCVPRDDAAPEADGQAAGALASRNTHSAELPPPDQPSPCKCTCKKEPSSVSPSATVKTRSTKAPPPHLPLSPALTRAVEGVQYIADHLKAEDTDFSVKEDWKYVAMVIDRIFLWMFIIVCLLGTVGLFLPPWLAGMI
T2 sequence (P17787 26-502): as the sequence (P17787 26-502) above
T3 sequence (P43681 29-627 limits assumed): as the sequence (P43681 29-627 limits assumed) above
T3 sequence (P17787 26-502): as the sequence (P17787 26-502) above
T4 sequence (P43681 29-627 limits assumed): as the sequence (P43681 29-627 limits assumed) above
T4 sequence (P17787 26-502): as the sequence (P17787 26-502) above

Compound: c1cnc2cc3c(cc2n1)[C@@H]1CNC[C@H]3C1 [Varenicline]
- EC50 (human (α6/3)β2β3-nAChR; 86Rb+ efflux, read-out: Agonism (α6/3)β2β3-nAChR pEC50 (converted)): 17.8 nM
- Agonism (α6/3)β2β3-nAChR Efficacy (human (α6/3)β2β3-nAChR; normalized to a full agonist): 17 ± 0.5
- Inactivation (α6/3)β2β3-nAChR Efficacy (human (α6/3)β2β3-nAChR; normalized to a full antagonist): 74 ± 2.6%
- Agonism α4β2-nAChR LS Efficacy [1]: 34 ± 2.8%
- Ki (α7 nAChR): 125 nM
- Inactivation α4β2-nAChR Efficacy (human α4β2-nAChR): 79 ± 3.3%
- Agonism α4β2-nAChR HS Efficacy [2]: 105 ± 4.4%
- time needed to approach food, NIH paradigm [3]: no effect
- SmartCube antidepressant effects (Male C57 BL6 mice; 1 mg/kg): weak antidepressant effects
- SmartCube side effects (Male C57 BL6 mice; 1.0 mg/kg, i.p.): Minimal side effects
- SmartCube side effect component, probability (Male C57 BL6 mice; 3.0 mg/kg, i.p.): about 30%
- SmartCube behavioral signature (Male C57 BL6 mice; i.p.): robust CNS drug-like signatures
- Ki (α4β4 nAChR): 110 nM
- latency to eat in NSF (C57BL/6J mice): did not show any effect
- Agonism α3β4*-nAChR Efficacy (human α3β4*-nAChR): 110%

Compound: CN1CCC[C@H]1c1cccnc1 [Nicotine]
- behavioral changes in NSF [4]: failed to show significant behavioral changes
- Agonism α3β4*-nAChR Efficacy (human α3β4*-nAChR): 90%

Compound: FC(F)(F)c1ccc2c(c1)[C@H]1CNC[C@@H]2C1 [CP-601927]
- Ki (α3β4 nAChR; ref Mineur et al. ([2011])): 102 nM
- Ki (α4β2 nAChR; ref Mineur et al. ([2011])): 1.2 nM
- latency to eat in NSF (C57BL/6J mice): increased the latency to eat

Compound: O=c1cccc2n1C[C@@H]1CNC[C@H]2C1 [(-)-cytisine]
- Ki (α7* nAChR; ref Rollema et al. ([2010])): 5890 nM
- Ki (α3β4 nAChR; ref Rollema et al. ([2010])): 480 nM
- SmartCube antidepressant (green) component (Male C57 BL6 mice; 1.0 mg/kg, i.p.): potential antidepressive-like behavior; also recorded: most pronounced
- SmartCube side effects (Male C57 BL6 mice; 0.5 and 1.0 mg/kg, i.p.): Minimal side effects; also recorded: no obvious side effects
- SmartCube behavioral signature (Male C57 BL6 mice; i.p.): robust CNS drug-like signatures
- intrinsic efficacy at both LS and HS receptors (LS and HS α4β2-nAChR): no more than 10%
- Ki (α4β2 nAChR; ref Rollema et al. ([2010])): 2 nM
- latency to eat in NSF (C57BL/6J mice): decreased the latency to eat
- dose not tolerated by mice (mice): > 1.5 mg/kg

Compound: CNC1(C)C2CCC(C2)C1(C)C (stereo not shown) [mecamylamine]
- block of α4β2*-nAChR function (α4β2*-nAChR): ~20%

Compound: OCCCCC#Cc1cncc(OC[C@@H]2CCN2)c1 [Sazetidine-A]
- Ki (α4β2* nAChR; ref Xiao et al. ([2006])): 0.9 nM
- Ki (α3β4 nAChR; ref Xiao et al. ([2006])): 10000 nM
- time needed to approach food, NIH paradigm [3]: decreased the time needed to approach food
- Ki (α4β2 nAChR; ref Xiao et al. ([2006])): 0.4 nM

Compound: O=c1c(-c2ccccn2)ccc2n1CC1CNCC2C1 (stereo not shown) [3-(2-pyridyl)cytisine]
- Ki (α3β4* nAChR): 119 nM
- Ki (α7* nAChR; ref Mineur et al. ([2009])): 1100 nM
- Ki (α4β2* nAChR; ref Mineur et al. ([2009])): 0.91 nM
- intrinsic efficacy at both LS and HS receptors (LS and HS α4β2-nAChR): no more than 10%
- latency to eat in NSF (C57BL/6J mice): decreased the latency to eat
- dose found effective in the NSF test (C57BL/6J mice; lower dose only (0.3 vs. 0.6 mg/kg)): 0.3 mg/kg
